These results are taken from PubChem BioAssay (NCI).

SMILES strings stand for the structures.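 96-well plates; 48 h exposure; 5 concentrations. Endpoints by linear interpolation between flanking doses. Not reached: highest tested concentration assigned. The concentration for full growth arrest is given as TGI.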 Where a SMILES comes first, the peptide text is derived from it. The star is where a group is joined. Boc = CC(C)(C)OC(=O)*; OBn = c1ccc(CO*)cc1 Some results are limits rather than exact numbers.

Some test systems named below: NCI-H522 lung; HOP-62 NSCLC; OVCAR-4 ovarian; LOX IMVI melanoma; PC-3 prostate; SN12C renal; SF-295 CNS; RXF 393 renal; MDA-MB-231 breast; DU-145 prostate; ACHN renal; MDA-MB-435; UACC-62 melanoma; HCT-15 colon; SW-620 colon; NCI-H23 lung; TK-10 renal; T-47D breast; MALME-3M melanoma; CCRF-CEM leukemia.
Common to all, as to assay: growth of human tumour cells (NCI), 48 h

`C/C(=C1\C(=O)C(c2ccccc2)N(c2ccccc2)C1=O)c1ccc(Cl)cc1` (configuration not stated): the TGI was found to be 38.7 µM in the assay on NCI-H522 lung; 84.5 µM with HOP-62 NSCLC; 42.8 µM in the assay with OVCAR-4 ovarian; 28.5 µM with LOX IMVI melanoma; 28.2 µM in the assay on PC-3 prostate; 86 µM in the assay on SN12C renal. For the same compound, the TGI amounted to 74.9 µM in the assay with SF-295 CNS; 79.2 µM in the assay with RXF 393 renal; 57.6 µM in the assay on MDA-MB-231 breast; 34 µM with DU-145 prostate; 45 µM with ACHN renal; 32.8 µM in the assay with MDA-MB-435. In addition, the TGI in the assay on UACC-62 melanoma was found to be 30.8 µM; with HCT-15 colon, 43.6 µM; with SW-620 colon, 72.3 µM; in the assay with NCI-H23 lung, 31.9 µM; in the assay on TK-10 renal it was 52.5 µM; in the assay with T-47D breast, 45.3 µM. In the assay on MALME-3M melanoma, this compound came in with a TGI of 37.4 µM.

Turning to `Cc1cc(=O)c2ccccc2n1CCCCCCCCCCn1c(C)cc(=O)c2ccccc21`, the TGI was 32.9 µM with NCI-H522 lung; > 100 µM in the assay with HOP-62 NSCLC; 44.1 µM in the assay on OVCAR-4 ovarian; 17.8 µM in the assay with LOX IMVI melanoma; > 100 µM in the assay with PC-3 prostate; 43.3 µM with SN12C renal. The TGI in the assay with RXF 393 renal is 72.3 µM; in the assay with MDA-MB-231 breast, > 100 µM; in the assay on CCRF-CEM leukemia, 26.7 µM; in the assay with DU-145 prostate, 41.9 µM; in the assay on ACHN renal it was > 100 µM; in the assay with MDA-MB-435, 29.7 µM. Moreover, the TGI with UACC-62 melanoma is 34.9 µM; with HCT-15 colon, > 100 µM; in the assay on SW-620 colon it was 56 µM; in the assay on NCI-H23 lung, 30.9 µM; in the assay on TK-10 renal it was 30.2 µM; in the assay on T-47D breast it was > 100 µM. This compound gave a TGI with MALME-3M melanoma of 34.4 µM.

Take `CC(C)CC(NC(=O)C(Cc1ccccc1)NC(=O)C(Cc1ccccc1)NC(=O)OC(C)(C)C)C(=O)OCc1ccccc1` (stereo not drawn) (Boc-Phe-Phe-Leu-OBn; configuration not given here): the TGI with NCI-H522 lung, with HOP-62 NSCLC, with LOX IMVI melanoma, in the assay with PC-3 prostate, in the assay on SN12C renal and in the assay with SF-295 CNS was > 100 µM throughout. The TGI in the assay on RXF 393 renal, in the assay with MDA-MB-231 breast, with CCRF-CEM leukemia, in the assay with DU-145 prostate, in the assay with MDA-MB-435 and in the assay on UACC-62 melanoma was > 100 µM throughout. In addition, the TGI with HCT-15 colon, in the assay on SW-620 colon, in the assay with NCI-H23 lung, in the assay with TK-10 renal, in the assay with T-47D breast and with MALME-3M melanoma was > 100 µM each time.

Consider `Cc1nn(-c2ccccc2)c2nc3ccc(Cl)cc3c(-c3ccccc3)c12`, for which the TGI in the assay with NCI-H522 lung, in the assay on HOP-62 NSCLC, in the assay with OVCAR-4 ovarian, in the assay on LOX IMVI melanoma, in the assay on PC-3 prostate and in the assay on SN12C renal was > 100 µM in each case. In addition, the TGI with SF-295 CNS, with MDA-MB-231 breast, in the assay with CCRF-CEM leukemia, with DU-145 prostate, with ACHN renal and in the assay with MDA-MB-435 was > 100 µM in each case. The TGI in the assay on UACC-62 melanoma, in the assay with HCT-15 colon, in the assay with SW-620 colon, in the assay with NCI-H23 lung, in the assay with TK-10 renal and in the assay with T-47D breast was > 100 µM throughout. Moreover, the TGI in the assay with MALME-3M melanoma was > 100 µM.

Turning to `CC#CCCCC1(C)CCCNC1=S` (configuration not stated), the TGI with NCI-H522 lung, in the assay on OVCAR-4 ovarian, with LOX IMVI melanoma, in the assay on PC-3 prostate, with SN12C renal and in the assay with SF-295 CNS was > 10 µM in each case. The TGI in the assay on RXF 393 renal, in the assay on MDA-MB-231 breast, in the assay on CCRF-CEM leukemia, in the assay with DU-145 prostate, in the assay with ACHN renal and in the assay with MDA-MB-435 was > 10 µM throughout. In addition, the TGI in the assay on UACC-62 melanoma, in the assay with HCT-15 colon, with SW-620 colon, in the assay on NCI-H23 lung, in the assay with TK-10 renal and in the assay on T-47D breast was > 10 µM in each case. Further, in the assay with MALME-3M melanoma, the TGI was > 10 µM.

Consider `NC(=O)C1CCCN1C(=O)N(CCCl)N=O` (configuration not stated), for which the TGI in the assay with NCI-H522 lung, in the assay with HOP-62 NSCLC, with OVCAR-4 ovarian, in the assay on LOX IMVI melanoma, with PC-3 prostate and in the assay on SN12C renal was > 100 µM each time. Further, the TGI in the assay with SF-295 CNS, with MDA-MB-231 breast, in the assay on CCRF-CEM leukemia, in the assay with DU-145 prostate, in the assay on ACHN renal and in the assay on MDA-MB-435 was > 100 µM each time. Besides, the TGI in the assay with UACC-62 melanoma, with HCT-15 colon, in the assay on SW-620 colon, in the assay on NCI-H23 lung, with TK-10 renal and in the assay with T-47D breast was > 100 µM throughout. Also, the TGI in the assay on MALME-3M melanoma is > 100 µM.

For the compound `O=C(CCc1ccc(O)cc1)NCCCNC(=O)CCc1ccc(O)cc1`, the TGI in the assay on NCI-H522 lung, in the assay with HOP-62 NSCLC, in the assay with OVCAR-4 ovarian, in the assay on LOX IMVI melanoma, in the assay with PC-3 prostate and in the assay with SN12C renal was > 100 µM each time. Besides, the TGI in the assay on SF-295 CNS, with RXF 393 renal, with MDA-MB-231 breast, in the assay with CCRF-CEM leukemia, in the assay on DU-145 prostate and with ACHN renal was > 100 µM throughout. Further, the TGI with MDA-MB-435, in the assay with UACC-62 melanoma, with HCT-15 colon, with SW-620 colon, in the assay with NCI-H23 lung and with T-47D breast was > 100 µM throughout. For the same compound, the TGI with MALME-3M melanoma is > 100 µM.
